# Measurements: patent US9040534B2, “[1,2,4]triazolo[4,3-a]pyrazines as P2X7 modulators” (Janssen Pharmaceutica NV, priority 2013, dated 2015)
# What was measured:
# P2X7 [1] = molecular target: T1, P2X7 (Homo sapiens (Human), UniProt Q99572); experiment: Radioligand binding, human P2X7-1321N1 cell membranes, tritiated A-804598 tracer; settings: 1 hour at 4° C.
# Experimental: (B) Radioligand binding: human or rat P2X7-1321N1 cells were collected and frozen @ −80° C. On the day of the experiment, cell membrane preparations were made according to standard published methods. […] The compound can be prepared as described in the literature. […] The assay was terminated by filtration (GF/B filters pre-soaked with 0.3% PEI) and washed with washing buffer (Tris-HCl 50 mM). The IC50 generated in the binding assay was corrected for tracer concentration and affinity of the tracer to derive at the affinity (Ki) of the test compounds.
# P2X7 [2] = molecular target: T1, P2X7; experiment: Ca2+ flux (FLIPR) in 1321N1 cells expressing recombinant human P2X7 channel; type: cell-based; settings: 250 μM BzATP
# Experimental: (§1) (A) Ca^2+ Flux: 1321N1 cells expressing the recombinant human, rat or mouse P2X7 channel was cultured in HyQ DME/(HyClone/Dulbecco's Modified Eagle Medium) high glucose supplemented with 10% Fetal Bovine Serum (FBS) and appropriate selection marker. Cells were seeded at a density of 25000 cells/well (96-well clear bottom black walled plates) in 100 μl volume/well. On the day of the experiment, cell plates were washed with assay buffer, containing (in mM): 130 NaCl, 2 KCl, 1 CaCl2, 1 MgCl2, 10 HEPES, 5 glucose; pH 7.40 and 300 mOs. After the wash, cells were loaded with the Calcium-4 dye (Molecular Device) and incubated in the dark for 60 minutes. Test compounds were prepared at 250× the test concentration in neat DMSO. Intermediate 96-well compound plates were prepared by transferring 1.2 μL of the compound into 300 μL of assay buffer. A further 3× dilution occurred when transferring 50 μL/well of the compound plate to 100 μL/well in the cell plate. Cells were incubated with test compounds and dye for 30 minutes. […] The fluorescence change was measured 180 seconds after adding the agonist.
# rat P2X7 = rat P2X7 (Rattus norvegicus (Rat), UniProt Q64663); experiment: Ca2+ flux (FLIPR) in 1321N1 cells expressing recombinant rat P2X7 channel; type: cell-based; settings: 250 μM BzATP
# Sequence of rat P2X7 (Q64663 whole entry): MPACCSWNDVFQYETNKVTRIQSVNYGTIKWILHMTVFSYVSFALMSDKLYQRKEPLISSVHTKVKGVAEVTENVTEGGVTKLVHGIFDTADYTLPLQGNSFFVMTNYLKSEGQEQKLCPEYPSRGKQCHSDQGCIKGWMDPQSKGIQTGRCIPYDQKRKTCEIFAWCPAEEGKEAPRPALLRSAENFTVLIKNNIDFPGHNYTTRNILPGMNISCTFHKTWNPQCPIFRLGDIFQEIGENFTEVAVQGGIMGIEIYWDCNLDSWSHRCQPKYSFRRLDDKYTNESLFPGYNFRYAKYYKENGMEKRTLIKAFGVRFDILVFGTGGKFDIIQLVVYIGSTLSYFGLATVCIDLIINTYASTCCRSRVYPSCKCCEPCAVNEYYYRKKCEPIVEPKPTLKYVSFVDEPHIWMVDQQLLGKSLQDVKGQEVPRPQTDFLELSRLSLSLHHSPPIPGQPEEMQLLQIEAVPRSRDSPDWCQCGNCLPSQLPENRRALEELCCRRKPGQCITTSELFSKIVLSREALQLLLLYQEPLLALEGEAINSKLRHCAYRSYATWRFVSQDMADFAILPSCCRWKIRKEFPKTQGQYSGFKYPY
# Experimental: as §1
# P2X7 [3] = molecular target: T1, P2X7; experiment: P2X7 antagonism in human whole blood (LPS + Bz-ATP induced IL-1β release, ELISA); type: cell-based; settings: 1 mM Bz-ATP
# Experimental: Human blood was collected using a blood donor program. PBMCs were isolated from blood using a Ficoll density gradient technique. Briefly, blood was laid on Ficoll solution and centrifuged at RT for 20 minutes at 2000 rpm. The buffy layer (between red blood cells and plasma) was carefully collected by aspiration, washed with PBS and centrifuged again at 1500 rpm for 15 minutes. The resulting cell pellet was washed and plated on 96 well-plates for experiments. […] Lipopolysaccharide (LPS) (30 ng/ml) was added to each well and incubated for 1 hour. Test compounds were then added and incubated for 30 minutes. The P2X7 agonist, 2′(3′)-O-(4-benzoylbenzoyl) adenosine 5′-triphosphate (Bz-ATP) was then added at a final concentration of 0.5 mM (PBMC) or 1 mM (blood). Cells were incubated for an additional 1.5 hours. At that point, supernatant was collected and stored for IL-1β assay using manufacturer's protocol for enzyme-linked immunosorbent assay (ELISA). Data was expressed as percent control, where control is defined as the difference in IL-1β release in LPS+Bz-ATP samples and LPS only samples. Data was plotted as response (% control) versus concentration to generate IC50 values.
# T1 sequence (Q99572 whole entry): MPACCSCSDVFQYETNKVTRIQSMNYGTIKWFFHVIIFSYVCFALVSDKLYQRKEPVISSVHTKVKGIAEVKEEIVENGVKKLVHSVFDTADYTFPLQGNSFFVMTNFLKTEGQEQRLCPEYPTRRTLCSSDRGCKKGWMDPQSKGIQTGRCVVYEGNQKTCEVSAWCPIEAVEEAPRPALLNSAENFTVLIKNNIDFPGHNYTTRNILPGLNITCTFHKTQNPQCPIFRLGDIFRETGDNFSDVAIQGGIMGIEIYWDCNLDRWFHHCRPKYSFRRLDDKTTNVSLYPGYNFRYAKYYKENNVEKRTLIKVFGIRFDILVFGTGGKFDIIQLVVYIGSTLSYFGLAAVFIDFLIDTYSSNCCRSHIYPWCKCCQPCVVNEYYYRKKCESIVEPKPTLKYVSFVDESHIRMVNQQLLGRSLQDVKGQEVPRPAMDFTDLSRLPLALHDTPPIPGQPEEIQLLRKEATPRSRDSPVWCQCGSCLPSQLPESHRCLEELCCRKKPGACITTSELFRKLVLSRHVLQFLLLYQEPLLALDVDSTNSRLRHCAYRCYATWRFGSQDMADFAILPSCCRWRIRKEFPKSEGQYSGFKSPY
Ki (P2X7 [1]) [µM],IC50 (P2X7 [2]) [µM],IC50 (rat P2X7) [µM],IC50 (P2X7 [3]) [µM],SMILES
0.02,0.147,> 10,10,"O=C1c2nnc(-c3ccccn3)n2CCN1Cc1cccc(Cl)c1Cl [Example 8, 7-(2,3-Dichlorobenzyl)-3-pyridin-2-yl-6,7-dihydro[1,2,4]triazolo[4,3-a]pyrazin-8(5H)-one]"
0.01,0.0502,> 10,> 10,"O=C1c2nnc(-c3ccccn3)n2CCN1Cc1cccc(C(F)(F)F)c1Cl [Example 9, 7-[2-Chloro-3-(trifluoromethyl)benzyl]-3-pyridin-2-yl-6,7-dihydro[1,2,4]triazolo[4,3-a]pyrazin-8(5H)-one]"
